In US6642256B2, “Piperidine derivatives as subtype selective N-Methyl-D-Aspartate antagonists” (Warner-Lambert Company LLC, priority 2000, dated 2003):

Columns and labels:
[1] = molecular target: NR1A/NR2B NMDA receptor (Rattus norvegicus, UniProt P35439+Q00960); assay: Electrophysiological NR1A/NR2B assay in Xenopus oocytes (two-electrode voltage clamp); assay type: cell-based; conditions: Table 1; oocytes expressing NR1A/NR2B, currents activated by glutamate and glycine
Source text: I. Electrophysiological assays at NMDA receptor subunits (in vitro):
(i) Preparation of subunit RNA's:
cDNA clones encoding the NR1A, NR2A, NR2B, and NR2C rat NMDA receptor subtypes were used. (See, Moriyoshi et al., Nature (Lond.), 1991;354:31-37; Kutsuwada et al., Nature (Lond.), 1992;358:36-41; Monyer et al., Science (Washington, D.C.) 1992;256:1217-1221; Ikeda et al., FEBS Lett. 1992;313: 34-38; Ishii et al., J. Biol. Chem., 1993;268:2836-2843 for details of these clones or their mouse homologs). The clones were transformed into appropriate host bacteria and plasmid preparations were made with conventional DNA purification techniques. A sample of each clone was linearized by restriction enzyme digestion […] was synthesized with T3 RNA polymerase. The cRNA was diluted to 400 ng/μl and stored in 1 μl aliquots at −80° C. until injection.
(ii) The Xenopus oocyte expression system: […]
Electrical recordings were made using a conventional two-electrode voltage clamp (Dagan TEV-200) over periods ranging between 3 to 21 days following injection. […] Inhibitory potency of the novel antagonists of this invention was assessed on responses elicited by fixed concentrations of glutamate and glycine agonists, by measuring reductions in current induced by progressively increasing concentrations of invention compounds. […]

[2] = tested on: 6-Hydroxydopamine-lesioned rats; assay: 6-OHDA lesioned rat assay (potentiation of L-DOPA-induced contraversive rotation); assay type: in vivo; conditions: Table 1; po; statistically significant increase in contraversive rotations versus L-DOPA alone (L-DOPA methyl ester 10 mg/kg SC)
Source text: b. The 6-OHDA Lesioned Rat Assay (6-OHDA):
The 6-OHDA model is used to test compounds of the invention for anti-Parkinsonism activity.
(i) 6-OHDA lesioned rat assay protocol:
6-Hydroxydopamine-lesioned rats were used (see Ungerstedt U, Arbuthnott G W: “Quantitative recording of rotational behavior in rats after 6-hydroxy-dopamine lesions of the nigrostraiatal dopamine system”, Brain Res., 1971;24(3):485-493). Adult male Sprague-Dawley rats were anesthetized with chloral hydrate, and unilateral lesions of the nigrostriatal dopamine system were accomplished by infusion of 8 μg of 6-hydroxydopamine HBr (6-OHDA) into the right medial forebrain bundle. Rats were pretreated 30 minutes before surgery with desipramine HCl 25 mg/kg intraperitoneally (IP) to protect noradrenergic neurons, and pargyline 25 mg/kg IP to potentiate the effects of 6-OHDA. A minimum of 3 weeks after surgery, the rotational behavior induced by apomorphine HCL 50 μg/kg administered subcutaneously (SC) was assessed.
(ii) Measurement of animal behavior:
Rotational behavior was measured using an automatic rotometer system (Rotorat Rotational Activity System, MED Associates, Georgia, Vt.). Antiparkinsonian activity was assessed as the ability of the invention compounds to potentiate the contraversive rotation induced by L-DOPA methyl ester, dosed at 10 mg/kg SC, over a 6-hour period. […]

Chain of NR1A/NR2B NMDA receptor (Q00960 27-1482, other chains not shown): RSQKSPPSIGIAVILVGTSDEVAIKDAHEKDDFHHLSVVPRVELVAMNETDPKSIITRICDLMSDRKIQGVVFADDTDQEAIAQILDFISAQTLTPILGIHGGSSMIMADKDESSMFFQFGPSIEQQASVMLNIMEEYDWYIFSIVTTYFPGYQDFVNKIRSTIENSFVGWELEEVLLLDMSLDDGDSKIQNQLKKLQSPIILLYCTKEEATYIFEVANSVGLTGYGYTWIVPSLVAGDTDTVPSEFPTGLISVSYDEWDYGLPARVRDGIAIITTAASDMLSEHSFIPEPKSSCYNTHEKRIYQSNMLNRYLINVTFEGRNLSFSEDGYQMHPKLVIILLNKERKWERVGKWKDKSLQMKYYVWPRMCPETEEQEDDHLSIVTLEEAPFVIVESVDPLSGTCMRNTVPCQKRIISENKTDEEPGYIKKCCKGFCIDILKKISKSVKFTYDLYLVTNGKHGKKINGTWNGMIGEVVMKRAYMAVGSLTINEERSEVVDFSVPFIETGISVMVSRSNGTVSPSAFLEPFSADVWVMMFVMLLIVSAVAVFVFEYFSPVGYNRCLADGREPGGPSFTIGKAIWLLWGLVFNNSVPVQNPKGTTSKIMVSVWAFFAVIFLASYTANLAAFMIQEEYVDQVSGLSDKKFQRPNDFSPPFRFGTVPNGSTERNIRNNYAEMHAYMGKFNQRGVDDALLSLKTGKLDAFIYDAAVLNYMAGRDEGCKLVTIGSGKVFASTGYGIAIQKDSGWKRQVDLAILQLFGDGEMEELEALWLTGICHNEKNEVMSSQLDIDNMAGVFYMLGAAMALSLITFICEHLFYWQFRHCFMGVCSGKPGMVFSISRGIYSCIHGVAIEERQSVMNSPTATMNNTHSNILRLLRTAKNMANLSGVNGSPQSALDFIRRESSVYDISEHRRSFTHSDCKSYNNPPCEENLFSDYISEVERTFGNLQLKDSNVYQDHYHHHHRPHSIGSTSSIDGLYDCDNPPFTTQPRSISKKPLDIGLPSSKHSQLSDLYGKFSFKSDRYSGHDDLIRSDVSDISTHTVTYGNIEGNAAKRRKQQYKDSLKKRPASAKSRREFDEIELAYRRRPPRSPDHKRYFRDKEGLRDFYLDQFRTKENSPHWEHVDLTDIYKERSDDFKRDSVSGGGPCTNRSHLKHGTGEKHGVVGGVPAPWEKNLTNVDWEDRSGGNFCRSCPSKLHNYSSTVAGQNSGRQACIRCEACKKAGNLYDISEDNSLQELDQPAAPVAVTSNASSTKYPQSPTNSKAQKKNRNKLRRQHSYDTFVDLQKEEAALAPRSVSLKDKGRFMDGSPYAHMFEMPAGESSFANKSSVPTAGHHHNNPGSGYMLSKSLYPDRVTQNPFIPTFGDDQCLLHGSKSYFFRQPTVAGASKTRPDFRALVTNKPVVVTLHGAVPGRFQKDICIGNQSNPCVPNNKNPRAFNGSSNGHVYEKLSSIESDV

Compound | IC50 [1] [µM] | 6-OHDA (mg/kg), minimum effective dose (MED) [2]
O=c1[nH]c2ccc(C3=NOC(CN4CCC(Cc5ccccc5)CC4)C3)cc2o1 (racemic) [Example 1, 6-[5-(4-Benzylpiperidin-1-ylmethyl)-4,5-dihydroisoxazol-3-yl]-3H-benzoxazol-2-one] | 0.08 | >10 (po) mg/kg
O=c1[nH]c2ccc(C3=NOC(CN4CCC(Cc5ccc(F)cc5)CC4)C3)cc2o1 (single isomer, unassigned; (-)) [Example 4b, (−)-6-{5-[4-(4-Fluorobenzyl)piperidin-1-ylmethyl]4,5-dihydroisoxazol-3-yl}-3H-benzoxazol-2-one] | – | >30 (po) mg/kg
